The numbers were not newly measured in PubChem BioAssay AID1259409 (Chemical Carcinogenesis Research Information System (CCRIS), 2018), which cites them from elsewhere.

The test system of this series is rodent chemically induced tumor inhibition, incidence and multiplicity. As to the kind of experiment: CCRIS tumor inhibitor studies. Conditions: Dose [Inhibitor]: 0, Route [Inhibitor]: ORAL, Species: RAT, Strain/Sex: F344/MALE, Promoter: NONE USED.

As for `O=C(O)c1ccc(O)c(O)c1`, the “tumour outcome (control, treated, inhibition, significance)” value is listed as 2/20 (10%), 2/23 (9%), 10%, not significant (Carcinogen: AZOXYMETHANE, 25843-45-2, 1000 PPM IN DIET FOR 28 WK BEGINNING 1 WK POST CARCINOGEN TREATMENT (STUDY DURATION: 32 WK), Target Tissue: Type of Lesion: LARGE INTESTINE: ADENOMA, Dose [Carcinogen]: 15 MG/KG BW 1/WK FOR 3 WK); 6/20 (30%), 2/23 (9%), 70%, not significant (Carcinogen: AZOXYMETHANE, 25843-45-2, 1000 PPM IN DIET FOR 28 WK BEGINNING 1 WK POST CARCINOGEN TREATMENT (STUDY DURATION: 32 WK), Target Tissue: Type of Lesion: SMALL INTESTINE: ADENOCARCINOMA, Dose [Carcinogen]: 15 MG/KG BW 1/WK FOR 3 WK); 1/20 (5%), 1/23 (4%), 20%, not significant (Carcinogen: AZOXYMETHANE, 25843-45-2, 1000 PPM IN DIET FOR 28 WK BEGINNING 1 WK POST CARCINOGEN TREATMENT (STUDY DURATION: 32 WK), Target Tissue: Type of Lesion: SMALL INTESTINE: ADENOMA, Dose [Carcinogen]: 15 MG/KG BW 1/WK FOR 3 WK); 18/18 (100%), 12/17 (71%), 29%, p=0.02 (Carcinogen: DIETHYLNITROSAMINE, 55-18-5, 500 PPM IN DIET BEGINNING 1 WK PRIOR TO CARCINOGEN AND CONTINUING FOR 7 WK FOLLOWED BY BASAL DIET FOR 30 WK (STUDY DU, Target Tissue: Type of Lesion: LIVER: ADENOMA OR CARCINOMA, Dose [Carcinogen]: 40 PPM IN DRINKING WATER FOR 5 WK BEGINNING AT 7 WK OF AGE); 89%, 59%, 34%, not significant (Carcinogen: DIETHYLNITROSAMINE, 55-18-5, 500 PPM IN DIET FOR 7 WK BEGINNING 1 WK PRIOR TO CARCINOGEN TREATMENT (STUDY DURATION: 37 WK), Target Tissue: Type of Lesion: LIVER: ADENOMA, Dose [Carcinogen]: 40 PPM IN DRINKING WATER FOR 5 WK); 89%, 71%, 20%, not significant (Carcinogen: DIETHYLNITROSAMINE, 55-18-5, 500 PPM IN DIET FOR 7 WK BEGINNING 1 WK PRIOR TO CARCINOGEN TREATMENT (STUDY DURATION: 37 WK), Target Tissue: Type of Lesion: LIVER: CARCINOMA, Dose [Carcinogen]: 40 PPM IN DRINKING WATER FOR 5 WK). The “tumour outcome (control, treated, inhibition, significance)” value was 89%, 60%, 33%, p<0.05 (Carcinogen: DIETHYLNITROSAMINE, 55-18-5, 500 PPM IN DIET FOR 30 WK BEGINNING 1 WK POST CARCINOGEN TREATMENT (STUDY DURATION: 37 WK), Target Tissue: Type of Lesion: LIVER: ADENOMA, Dose [Carcinogen]: 40 PPM IN DRINKING WATER FOR 5 WK); 89%, 37%, 58%, p<0.05 (Carcinogen: DIETHYLNITROSAMINE, 55-18-5, 1000 PPM IN DIET FOR 7 WK BEGINNING 1 WK PRIOR TO CARCINOGEN TREATMENT (STUDY DURATION: 37 WK), Target Tissue: Type of Lesion: LIVER: ADENOMA, Dose [Carcinogen]: 40 PPM IN DRINKING WATER FOR 5 WK); 89%, 68%, 24%, not significant (Carcinogen: DIETHYLNITROSAMINE, 55-18-5, 1000 PPM IN DIET FOR 30 WK BEGINNING 1 WK POST CARCINOGEN TREATMENT (STUDY DURATION: 37 WK), Target Tissue: Type of Lesion: LIVER: ADENOMA, Dose [Carcinogen]: 40 PPM IN DRINKING WATER FOR 5 WK); 89%, 32%, 64%, p<0.05 (Carcinogen: DIETHYLNITROSAMINE, 55-18-5, 1000 PPM IN DIET FOR 30 WK BEGINNING 1 WK POST CARCINOGEN TREATMENT (STUDY DURATION: 37 WK), Target Tissue: Type of Lesion: LIVER: CARCINOMA, Dose [Carcinogen]: 40 PPM IN DRINKING WATER FOR 5 WK); 17/22 (77%), 13/22 (59%), 23%, not significant (Carcinogen: N-BUTYL-N-(4-HYDROXYBUTYL)NITROSAMINE, 3817-11-6, 500 PPM IN DIET FOR 8 WK BEGINNING 1 WK PRIOR TO CARCINOGEN TREATMENT (STUDY DURATION: 41 WK), Target Tissue: Type of Lesion: BLADDER: CARCINOMA, Dose [Carcinogen]: 0.05% IN DRINKING WATER FOR 6 WK); 1/22 (5%), 3/22 (14%), -180%, not significant (Carcinogen: N-BUTYL-N-(4-HYDROXYBUTYL)NITROSAMINE, 3817-11-6, 500 PPM IN DIET FOR 8 WK BEGINNING 1 WK PRIOR TO CARCINOGEN TREATMENT (STUDY DURATION: 41 WK), Target Tissue: Type of Lesion: BLADDER: PAPILLOMA, Dose [Carcinogen]: 0.05% IN DRINKING WATER FOR 6 WK). Moreover, the “tumour outcome (control, treated, inhibition, significance)” value (Carcinogen: N-BUTYL-N-(4-HYDROXYBUTYL)NITROSAMINE, 3817-11-6, 500 PPM IN DIET FOR 33 WK BEGINNING 1 WK POST CARCINOGEN TREATMENT (STUDY DURATION: 41 WK), Target Tissue: Type of Lesion: BLADDER: CARCINOMA, Dose [Carcinogen]: 0.05% IN DRINKING WATER FOR 6 WK) is given as 17/22 (77%), 13/25 (52%), 32%, not significant; the “tumour outcome (control, treated, inhibition, significance)” value (Carcinogen: N-BUTYL-N-(4-HYDROXYBUTYL)NITROSAMINE, 3817-11-6, 500 PPM IN DIET FOR 33 WK BEGINNING 1 WK POST CARCINOGEN TREATMENT (STUDY DURATION: 41 WK), Target Tissue: Type of Lesion: BLADDER: PAPILLOMA, Dose [Carcinogen]: 0.05% IN DRINKING WATER FOR 6 WK) was 1/22 (5%), 4/25 (16%), -220%, not significant; the “tumour outcome (control, treated, inhibition, significance)” value (Carcinogen: N-BUTYL-N-(4-HYDROXYBUTYL)NITROSAMINE, 3817-11-6, 1000 PPM IN DIET FOR 8 WK BEGINNING 1 WK PRIOR TO CARCINOGEN TREATMENT (STUDY DURATION: 41 WK), Target Tissue: Type of Lesion: BLADDER: CARCINOMA, Dose [Carcinogen]: 0.05% IN DRINKING WATER FOR 6 WK) is reported as 17/22 (77%), 9/22 (41%), 47%, p<0.03; the “tumour outcome (control, treated, inhibition, significance)” value (Carcinogen: N-BUTYL-N-(4-HYDROXYBUTYL)NITROSAMINE, 3817-11-6, 1000 PPM IN DIET FOR 8 WK BEGINNING 1 WK PRIOR TO CARCINOGEN TREATMENT (STUDY DURATION: 41 WK), Target Tissue: Type of Lesion: BLADDER: PAPILLOMA, Dose [Carcinogen]: 0.05% IN DRINKING WATER FOR 6 WK) was 1/22 (5%), 0/22 (0%), 100%, not significant; the “tumour outcome (control, treated, inhibition, significance)” value (Carcinogen: N-BUTYL-N-(4-HYDROXYBUTYL)NITROSAMINE, 3817-11-6, 1000 PPM IN DIET FOR 33 WK BEGINNING 1 WK POST CARCINOGEN TREATMENT (STUDY DURATION: 41 WK), Target Tissue: Type of Lesion: BLADDER: CARCINOMA, Dose [Carcinogen]: 0.05% IN DRINKING WATER FOR 6 WK) is 17/22 (77%), 12/25 (48%), 38%, p<0.05; the “tumour outcome (control, treated, inhibition, significance)” value (Carcinogen: N-BUTYL-N-(4-HYDROXYBUTYL)NITROSAMINE, 3817-11-6, 1000 PPM IN DIET FOR 33 WK BEGINNING 1 WK POST CARCINOGEN TREATMENT (STUDY DURATION: 41 WK), Target Tissue: Type of Lesion: BLADDER: PAPILLOMA, Dose [Carcinogen]: 0.05% IN DRINKING WATER FOR 6 WK) is reported as 1/22 (5%), 2/25 (8%), -60%, not significant. In addition, the “tumour outcome (control, treated, inhibition, significance)” value is 17/22 (77%), 8/25 (32%), 58%, p<0.005 (Carcinogen: N-BUTYL-N-(4-HYDROXYBUTYL)NITROSAMINE, 3817-11-6, 2000 PPM IN DIET FOR 8 WK BEGINNING 1 WK PRIOR TO CARCINOGEN TREATMENT (STUDY DURATION: 41 WK), Target Tissue: Type of Lesion: BLADDER: CARCINOMA, Dose [Carcinogen]: 0.05% IN DRINKING WATER FOR 6 WK) and 1/22 (5%), 3/25 (12%), -140%, not significant (Carcinogen: N-BUTYL-N-(4-HYDROXYBUTYL)NITROSAMINE, 3817-11-6, 2000 PPM IN DIET FOR 8 WK BEGINNING 1 WK PRIOR TO CARCINOGEN TREATMENT (STUDY DURATION: 41 WK), Target Tissue: Type of Lesion: BLADDER: PAPILLOMA, Dose [Carcinogen]: 0.05% IN DRINKING WATER FOR 6 WK).
